{
  "source": "BindingDB's records for doi:10.1021/jm970200u",
  "about": "(Northwestern University, 1997)",
  "note": "Where a SMILES comes first, the peptide text is derived from it. [ ]: non-standard residue; d: D form. The star is where a group is joined. dArg(NO2) = N=C(NCCC[C@@H](N)C(=O)O)N[N+](=O)[O-]; Arg(NO2) = N=C(NCCC[C@H](N)C(=O)O)N[N+](=O)[O-]; OBn = c1ccc(CO*)cc1",
  "data": [
    {"assay": "Inhibition of Neuronal Nitric oxide synthase enzyme (nNOS)", "units": {"Ki": "µM"}, "values": [
      {"smiles": "COC(=O)[C@@H](CCCN=C(N)N[N+](=O)[O-])NC(=O)[C@@H](N)Cc1ccccc1", "Ki": 90},
      {"smiles": "COC(=O)[C@@H](Cc1ccccc1)NC(=O)[C@H](N)CCCNC(=N)N[N+](=O)[O-]", "note": "[D-Nitroarginine,methoxy-D-phenylalanine,with 2M of hydrochloric acid]", "Ki": 150},
      {"smiles": "COC(=O)[C@@H](Cc1ccccc1)NC(=O)[C@@H](N)CCCN=C(N)N[N+](=O)[O-]", "Ki": 92},
      {"smiles": "COC(=O)[C@H](Cc1ccccc1)NC(=O)[C@@H](N)CCCN=C(N)N[N+](=O)[O-]", "Ki": 290},
      {"smiles": "NC(=NCCC[C@H](N)C(=O)N[C@@H](Cc1ccccc1)C(=O)OCc1ccccc1)N[N+](=O)[O-]", "Ki": 55},
      {"smiles": "N=C(NCCC[C@@H](NC(=O)[C@H](N)Cc1ccccc1)C(=O)O)N[N+](=O)[O-]", "note": "[(2R)-2-{[(2R)-2-amino-3-phenylpropanoyl]amino}-5-{[(Z)-imino(nitroamino)methyl]amino}pentanoic acid] (H-[dF]-[dArg(NO2)]-OH)", "Ki": 17},
      {"smiles": "COC(=O)[C@H](CCCN=C(N)N[N+](=O)[O-])NC(=O)[C@@H](N)Cc1ccccc1", "Ki": 370},
      {"smiles": "NC(=NCCC[C@H](N)C(=O)N[C@@H](Cc1ccccc1)C(=O)O)N[N+](=O)[O-]", "Ki": 18},
      {"smiles": "COC(=O)[C@@H](CCCN=C(N)N[N+](=O)[O-])NC(=O)[C@H](N)Cc1ccccc1", "Ki": 400},
      {"smiles": "NC(=NCCC[C@H](NC(=O)[C@@H](N)Cc1ccccc1)C(=O)OCc1ccccc1)N[N+](=O)[O-]", "note": "(H-Phe-[Arg(NO2)]-OBn)", "Ki": 110}
    ]}
  ]
}
